Active and inactive are the calls of the source.
What was measured:
[1] = MC4R antagonists, dose response, counter-screen for LGR2 antagonist project, cell-based, plate reader, cherry pick (AID 743444); type: functional;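 further: transfected HEK 293 cells stimulated with alpha-MSH peptide; potency of inhibitors of the alpha-MSH evoked signal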
[2] = HepG2 cell cytotoxicity, dose response, cytotoxicity control, plate reader, cherry-pick, antagonist series (AID 743416); type: functional, cell-based
[3] = LGR2 antagonists, dose response, cell-based, HEK293, CRE-luciferase reporter, cherry pick, set 2 (AID 743343); type: functional;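 further: transfected cells were stimulated with diluted bursicon conditioned medium after compound addition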
[4] = biological target: T1, Corticotropin-releasing factor receptor 2/Corticotropin-releasing factor-binding protein (Homo sapiens, UniProt P24387+Q13324); assay: activators of CRF receptor 2 with binding protein – uHTS hits, confirmation (AID 602473); type: functional; settings: read-out: EC50_Mean
T1 sequence (Q13324 whole entry): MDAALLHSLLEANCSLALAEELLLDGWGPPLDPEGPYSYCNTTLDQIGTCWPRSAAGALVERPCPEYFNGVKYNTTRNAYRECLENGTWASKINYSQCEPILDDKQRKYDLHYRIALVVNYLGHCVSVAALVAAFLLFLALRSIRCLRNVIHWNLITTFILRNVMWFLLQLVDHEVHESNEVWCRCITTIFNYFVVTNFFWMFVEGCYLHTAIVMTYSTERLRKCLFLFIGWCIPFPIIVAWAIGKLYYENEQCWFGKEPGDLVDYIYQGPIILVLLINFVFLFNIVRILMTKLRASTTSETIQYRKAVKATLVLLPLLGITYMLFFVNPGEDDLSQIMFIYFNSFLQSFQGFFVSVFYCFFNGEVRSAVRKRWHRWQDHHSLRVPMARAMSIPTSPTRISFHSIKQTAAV
T1 sequence (P24387 whole entry): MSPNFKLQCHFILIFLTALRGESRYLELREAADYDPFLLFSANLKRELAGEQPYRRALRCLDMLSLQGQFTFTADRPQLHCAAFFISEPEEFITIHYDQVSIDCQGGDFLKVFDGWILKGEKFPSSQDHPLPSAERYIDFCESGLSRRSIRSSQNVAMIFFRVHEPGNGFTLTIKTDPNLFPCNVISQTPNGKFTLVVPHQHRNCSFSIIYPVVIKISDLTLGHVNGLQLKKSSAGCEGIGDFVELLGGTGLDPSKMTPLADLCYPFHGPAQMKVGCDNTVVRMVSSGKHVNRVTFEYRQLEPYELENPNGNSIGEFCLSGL

[5] = biological target: T1, Corticotropin-releasing factor receptor 2/Corticotropin-releasing factor-binding protein; assay: Dose Response confirmation of uHTS hits for small molecule antagonists of the CRF-binding protein and CRF-R2 receptor complex.; type: functional; settings: read-out: IC50_Mean
[6] = CRF-BP/CRF-R2 complex antagonists, dose response, cell-based, uHTS hits, 384-well (AID 651639); type: functional, Homo sapiens; settings: read-out: IC50_Mean
[7] = biological target: T2, Galanin receptor type 3 (Homo sapiens, UniProt O60755); assay: Fluorescence-based cell-based primary high throughput dose response assay to identify antagonists of the Galanin Receptor 3 (GalR3).; type: functional
T2 sequence (O60755 whole entry): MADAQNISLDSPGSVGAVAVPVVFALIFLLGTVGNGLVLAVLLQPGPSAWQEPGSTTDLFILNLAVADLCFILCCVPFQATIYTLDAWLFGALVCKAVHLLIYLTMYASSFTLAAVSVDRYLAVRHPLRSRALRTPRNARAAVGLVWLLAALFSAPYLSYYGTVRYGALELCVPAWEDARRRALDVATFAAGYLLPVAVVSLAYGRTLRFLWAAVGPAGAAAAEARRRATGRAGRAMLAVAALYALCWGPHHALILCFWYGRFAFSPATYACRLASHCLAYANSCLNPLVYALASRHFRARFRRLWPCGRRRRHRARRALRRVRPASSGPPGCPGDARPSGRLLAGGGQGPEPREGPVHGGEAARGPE

[8] = tested on: INS1; assay: beta cell apoptosis inhibitors, cytokine rescue, dose response, luminescence, retest (AID 449756); type: functional, cell-based; settings: Rattus norvegicus;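 further: cell death triggered by IL-1 beta plus TNF-alpha plus IFN-gamma mixture; protective hits raise ATP signal compared with cytokine alone wells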
[9] = cells; type: functional, cell-based; settings: HEK-CNG
[10] = biological target: Photoreceptor-specific nuclear receptor (Homo sapiens, UniProt Q9Y5X4); type: functional, cell-based;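 further: CHO-S cells with Gal4-NCOR and VP16-NR2E3 two-hybrid luciferase reporter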
Photoreceptor-specific nuclear receptor, sequence (Q9Y5X4 whole entry, the tested form may be a part): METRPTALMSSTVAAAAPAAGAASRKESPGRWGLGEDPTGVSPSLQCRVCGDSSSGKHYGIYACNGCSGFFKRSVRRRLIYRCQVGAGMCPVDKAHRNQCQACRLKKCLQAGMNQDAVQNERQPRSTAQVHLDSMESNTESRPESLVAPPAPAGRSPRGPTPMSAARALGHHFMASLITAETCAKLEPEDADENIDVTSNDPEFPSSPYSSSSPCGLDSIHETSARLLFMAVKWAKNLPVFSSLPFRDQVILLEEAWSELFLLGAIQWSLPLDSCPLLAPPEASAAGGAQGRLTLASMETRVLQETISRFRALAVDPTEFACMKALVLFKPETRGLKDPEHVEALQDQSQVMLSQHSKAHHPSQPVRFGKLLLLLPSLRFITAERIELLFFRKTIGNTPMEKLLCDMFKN

[11] = biological target: T3, Carboxy-terminal domain RNA polymerase II polypeptide A small phosphatase 1 (Homo sapiens, UniProt Q9GZU7); assay: inhibitors of CTDSP1, concentration-response testing, biochemical assay, absorbance-based, actives from ultra-high-throughput screening (AID 540297); type: functional
T3 sequence (Q9GZU7 whole entry): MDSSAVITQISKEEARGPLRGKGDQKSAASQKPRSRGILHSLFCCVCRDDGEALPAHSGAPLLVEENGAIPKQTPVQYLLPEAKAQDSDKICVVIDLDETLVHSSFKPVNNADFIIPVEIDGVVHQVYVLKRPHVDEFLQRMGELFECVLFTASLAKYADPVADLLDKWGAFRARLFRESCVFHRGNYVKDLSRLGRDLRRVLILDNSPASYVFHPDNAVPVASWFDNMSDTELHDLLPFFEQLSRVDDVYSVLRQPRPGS

[12] = tested on: A-375; assay: MITF: Counter assay: A375 proliferation Measured in Cell-Based System Using Plate Reader - 2084-03_Inhibitor_Dose_DryPowder_Activity. [Related pubchem assays (depositor defined):AID488944]; type: functional; settings: Homo sapiens
[13] = biological target: T4, Microphthalmia-associated transcription factor (Homo sapiens, UniProt O75030); assay: TRPM1 promoter luciferase signal decrease, dose response, MITF inhibitor project, cell-based, SK-MEL-5, cherry-picked, set 3 (AID 493073); type: functional
T4 sequence (O75030 whole entry): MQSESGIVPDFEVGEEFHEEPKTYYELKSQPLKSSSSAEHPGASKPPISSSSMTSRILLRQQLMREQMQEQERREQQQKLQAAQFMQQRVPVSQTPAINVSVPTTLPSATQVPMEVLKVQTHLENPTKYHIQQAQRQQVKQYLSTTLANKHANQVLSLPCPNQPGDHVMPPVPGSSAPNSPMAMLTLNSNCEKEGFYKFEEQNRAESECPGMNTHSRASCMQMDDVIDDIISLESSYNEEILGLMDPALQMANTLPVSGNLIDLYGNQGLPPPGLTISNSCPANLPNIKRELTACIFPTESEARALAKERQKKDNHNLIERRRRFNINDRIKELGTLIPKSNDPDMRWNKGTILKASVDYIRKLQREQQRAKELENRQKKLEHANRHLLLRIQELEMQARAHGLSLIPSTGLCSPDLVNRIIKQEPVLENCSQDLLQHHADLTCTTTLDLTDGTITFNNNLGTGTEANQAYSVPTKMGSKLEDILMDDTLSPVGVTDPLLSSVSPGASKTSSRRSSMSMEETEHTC

[14] = A549 cell cytotoxicity, dose response, cytotoxicity control, plate reader, cherry-pick, antagonist series (AID 743412); type: functional, cell-based
[15] = biological target: T5, Heat shock factor protein 1 (Mus musculus, UniProt P38532); assay: inhibition of MG132-induced HSE-luciferase signal, confirmation, cell-based, NIH3T3, luminescence, dose retest (AID 2382); type: functional;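 further: NIH3T3 fibroblasts with HSF1-driven luciferase reporter stressed by proteasome inhibitor MG132; luminescence from HSF1-driven luciferase expression after 8 hours of MG132 stress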
T5 sequence (P38532 whole entry): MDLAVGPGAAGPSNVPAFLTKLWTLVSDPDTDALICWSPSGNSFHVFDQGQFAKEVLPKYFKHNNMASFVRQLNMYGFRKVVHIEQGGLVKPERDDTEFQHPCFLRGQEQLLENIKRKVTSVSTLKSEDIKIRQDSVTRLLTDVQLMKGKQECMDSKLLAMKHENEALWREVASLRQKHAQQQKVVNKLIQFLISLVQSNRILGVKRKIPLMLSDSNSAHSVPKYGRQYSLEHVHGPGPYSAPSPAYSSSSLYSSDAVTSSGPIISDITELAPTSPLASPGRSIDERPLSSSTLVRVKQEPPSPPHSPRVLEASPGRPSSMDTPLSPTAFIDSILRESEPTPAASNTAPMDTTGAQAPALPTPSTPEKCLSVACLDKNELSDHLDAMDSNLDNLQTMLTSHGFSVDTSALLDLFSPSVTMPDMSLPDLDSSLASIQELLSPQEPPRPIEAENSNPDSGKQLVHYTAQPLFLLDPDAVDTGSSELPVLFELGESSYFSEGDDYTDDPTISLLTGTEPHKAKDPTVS

[16] = tested on: HEK293; assay: inhibitors of LMP1-driven NF-kB reporter, dose response, cell-based, HEK293, luciferase, cherry-pick (AID 588343); type: functional; settings: Homo sapiens
[17] = tested on: Vero; assay: cells; type: functional; settings: Chlorocebus sabaeus

SMILES: O=C(O)c1cccc(-c2noc(-c3cccc(Cl)c3)n2)c1
- AC50 [1]: 7.56 µM (active)
- AC50 [2]: > 52 µM (inactive)
- AC50 [3]: 5.67 µM (active)

SMILES: COc1ccc(S(=O)(=O)N2CCCCCC2)cc1C(=O)N(C)Cc1ccc(C(C)(C)C)cc1
- EC50 [4]: > 53 µM (inactive)
- IC50 [5]: 14.6 µM (active)
- IC50 [6]: 13.5 µM (active)

SMILES: CCCOc1ccc(CSc2nc3ccccc3[nH]2)cc1
- IC50 [7]: 2.27 µM (active)
- AC50 [8]: 3.73 µM (active)
- EC50 [9]: > 29.9 µM (inactive)
- IC50 [10]: 4.25 µM (active)

SMILES: C=CCC1(CC=C)CCCN1C(=O)c1cc(COc2cncc(Cl)c2)on1
- IC50 [7]: > 1.11 µM (active)
- EC50 [9]: > 29.9 µM (inactive)

SMILES: COCC1CCCN(C(=O)c2cc(COc3ccc4ncccc4c3)on2)C1 (stereo not given)
- IC50 [7]: 1.3 µM (active)
- EC50 [9]: > 29.9 µM (inactive)

SMILES: O=C(COc1cc(Cl)ccc1Cl)N1CCNC1=O
- EC50 [4]: > 53 µM (inactive)
- IC50 [5]: 27.4 µM (active)
- IC50 [6]: 8.63 µM (active)

SMILES: COC(=O)c1cc(NC(=O)Cc2cccs2)cc(C(=O)OC)c1
- IC50 [11]: 3.84 µM (active)

SMILES: COC(=O)c1ccc(Nc2cc(C)nc3ccc(C)cc23)cc1
- AC50 [2]: 13.2 µM (active)
- AC50 [12]: 36.8 µM (active)
- AC50 [13]: 6.85 µM (active)
- AC50 [14]: 4.31 µM (active)

SMILES: CC(C)(C)c1ccc(Cn2c(=O)cnc3ccccc32)cc1
- AC50 [2]: 29.4 µM (active)
- EC50 [15]: 2.27 µM (active)
- AC50 [16]: 6.93 µM (active)
- AC50 [3]: 38 µM (active)
- AC50 [14]: 12.6 µM (active)

SMILES: CCc1cc(OCCCSc2nc(C)cc(O)n2)ccc1Cl
- CC50 [17]: 2.36 µM (active)
- IC50 [10]: 3.02 µM (active)

SMILES: O=C(CNC(=O)c1cccc(OC(F)F)c1)OCc1cc(=O)n2cc(Br)ccc2n1
- IC50 [11]: 7.09 µM (active)
